# Assay results taken from patent publication US12485125B2, “Treatment with P2X3 modulators” (GlaxoSmithKline Intellectual Property (No. 3) Limited, priority 2019, dated 2025).
# Tested on: syngeneic C57BL/6 mice
# Experiment: Syngeneic mouse model of endometriosis: mechanical allodynia by von Frey pain stimulation procedure
# Type: in vivo
# Conditions: 30 mg/kg i.p., day 4 and 5, measured one hour following treatment; p<0.05; FIG. 1A
# Procedure: A P2X3 receptor antagonist compound of Formula (I) described herein was evaluated in the syngeneic mouse model of endometriosis.
# C57BL/6 mice (8 weeks old) were anesthetized before making a vertical incision on the abdomen. The uterus was collected and divided into pieces of 5 millimeters which were then surgically sutured onto the peritoneum of syngeneic recipient animals. The recipient mice were also treated with oestradiol and the resulting lesions were allowed to develop for 11 weeks.
# Baseline measurements were established on Day 0 by measuring mechanical allodynia in all transplanted mice using a von Frey pain stimulation procedure in accordance with the protocol described below. On Day 1 transplanted mice were injected with saline (i.p.) and mechanical allodynia was again measured using the von Frey filament method (control). […] Mechanical allodynia was evaluated using the von Frey pain stimulation procedure. […] The mice were euthanized on Day 6 and evaluated for the presence of endometriotic lesions.
# Animals were placed in small cages with a mesh or otherwise penetrable bottom. The pain threshold was evaluated with von Frey filaments using the simplified up-down method, which determines the mechanical force required to elicit a positive pain response in animals. […]
structure (smiles),measurement,value
CNC(=O)c1cc(F)c(-c2nc3cc(C)ccn3c2C[C@H]2CN(C(=O)OC)CCO2)c(F)c1 [Compound 1],"stimulus threshold (von Frey test; pressure stimulus required to elicit behavioral response, change from baseline Day 0)",greater stimulus threshold
